Assay results from the supplement of paper PMC10307832.

Tests used:
Assay in all cases: relative viability (nuclei count vs DMSO), 5 days (fraction); higher = more cells survive
[1] = tested on: NCI-H1355
Method in brief: (§1)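 Lung cancer cell lines in 1536-well plates were dosed by pin tool the day after seeding, either with one drug alone or with a fixed anchor-drug dose plus five library-drug doses (not always all listed) in √10 steps. After 5 days, cells were fixed and their nuclei stained in one step (final 0.05% Triton X-100, 1% formaldehyde, 1 ug/ml Hoechst), then counted on 4× images. Relative viability is the nuclei count in treated wells divided by that in vehicle wells. Values are medians of duplicate plates.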

[2] = tested on: SW 900
Method in brief: as §1

[3] = tested on: NCI-H3122
Method in brief: as §1

[4] = tested on: NCI-H1755
Method in brief: as §1

[5] = tested on: NCI-H520
Method in brief: as §1

[6] = tested on: NCI-H358
Method in brief: as §1

[7] = tested on: A-427
Method in brief: as §1

[8] = tested on: EKVX
Method in brief: as §1

[9] = tested on: NCI-H1666
Method in brief: as §1

[10] = tested on: NCI-H650
Method in brief: as §1

[11] = tested on: NCI-H1650
Method in brief: as §1

[12] = tested on: NCI-H838
Method in brief: as §1

[13] = tested on: NCI-H322M
Method in brief: as §1

[14] = tested on: NCI-H1944
Method in brief: as §1

[15] = tested on: NCI-H441
Method in brief: as §1

[16] = tested on: NCI-H2347
Method in brief: as §1

[17] = tested on: LK-2
Method in brief: as §1

[18] = tested on: ChaGo-K-1
Method in brief: as §1

[19] = tested on: SW 1573
Method in brief: as §1

[20] = tested on: NCI-H2085
Method in brief: as §1

[21] = tested on: NCI-H460
Method in brief: as §1

[22] = tested on: NCI-H1734
Method in brief: as §1

[23] = tested on: H3255
Method in brief: as §1

[24] = tested on: NCI-H596
Method in brief: as §1

For CCCCCCCCCCCC1=C(O)C(=O)C=C(O)C1=O [Embelin] + Nc1ncn([C@H]2C[C@H](O)[C@@H](CO)O2)c(=O)n1 [Decitabine] (partner 2 µM), which relative viability ([1]; first compound 0.08 µM) is on record?
Its relative viability is 0.333.

And the relative viability ([1]; first compound 0.8 µM)?
Its relative viability is 0.394.

And the relative viability ([1]; first compound 2.53 µM)?
The relative viability was 0.421.

What about the relative viability ([1]; first compound 8 µM) of the same molecule?
Its relative viability is 0.358.

What about the relative viability ([2]; first compound 0.08 µM) of the same molecule?
Its relative viability is 0.449.

What about the relative viability ([2]; first compound 0.8 µM) of the same molecule?
Its relative viability is 0.402.

And the relative viability ([2]; first compound 2.53 µM)?
Its relative viability is 0.466.

What about the relative viability ([2]; first compound 8 µM) of the same molecule?
The relative viability was 0.454.

What about the relative viability ([3]; first compound 0.08 µM) of the same molecule?
Its relative viability is 0.385.

What about the relative viability ([3]; first compound 0.8 µM) of the same molecule?
Its relative viability is 0.446.

What about the relative viability ([3]; first compound 2.53 µM) of the same molecule?
The relative viability was 0.419.

What about the relative viability ([3]; first compound 8 µM) of the same molecule?
The relative viability was 0.397.

And the relative viability ([4]; first compound 0.08 µM)?
Its relative viability is 0.767.

And the relative viability ([4]; first compound 0.8 µM)?
Its relative viability is 0.72.

And the relative viability ([4]; first compound 2.53 µM)?
The relative viability was 0.781.

And the relative viability ([4]; first compound 8 µM)?
The relative viability was 0.753.

And the relative viability ([5]; first compound 0.08 µM)?
The relative viability was 0.478.

What about the relative viability ([5]; first compound 0.8 µM) of the same molecule?
The relative viability was 0.558.

And the relative viability ([5]; first compound 2.53 µM)?
The relative viability was 0.552.

And the relative viability ([5]; first compound 8 µM)?
The relative viability was 0.441.

What about the relative viability ([6]; first compound 0.08 µM) of the same molecule?
Its relative viability is 0.2.

What about the relative viability ([6]; first compound 0.8 µM) of the same molecule?
Its relative viability is 0.233.

What about the relative viability ([6]; first compound 2.53 µM) of the same molecule?
The relative viability was 0.23.

And the relative viability ([6]; first compound 8 µM)?
The relative viability was 0.221.

What about the relative viability ([7]; first compound 0.08 µM) of the same molecule?
Its relative viability is 0.494.

What about the relative viability ([7]; first compound 0.8 µM) of the same molecule?
The relative viability was 0.555.

And the relative viability ([7]; first compound 2.53 µM)?
The relative viability was 0.561.

And the relative viability ([7]; first compound 8 µM)?
The relative viability was 0.54.

And the relative viability ([8]; first compound 0.08 µM)?
The relative viability was 0.41.

What about the relative viability ([8]; first compound 0.8 µM) of the same molecule?
The relative viability was 0.4.

What about the relative viability ([8]; first compound 2.53 µM) of the same molecule?
Its relative viability is 0.314.

And the relative viability ([8]; first compound 8 µM)?
Its relative viability is 0.313.

What about the relative viability ([9]; first compound 0.08 µM) of the same molecule?
Its relative viability is 0.712.

And the relative viability ([9]; first compound 0.8 µM)?
Its relative viability is 0.812.

What about the relative viability ([9]; first compound 2.53 µM) of the same molecule?
The relative viability was 0.78.

What about the relative viability ([9]; first compound 8 µM) of the same molecule?
Its relative viability is 0.757.

What about the relative viability ([10]; first compound 0.08 µM) of the same molecule?
The relative viability was 0.322.

And the relative viability ([10]; first compound 0.8 µM)?
The relative viability was 0.371.

And the relative viability ([10]; first compound 2.53 µM)?
Its relative viability is 0.337.

And the relative viability ([10]; first compound 8 µM)?
Its relative viability is 0.297.

And the relative viability ([11]; first compound 0.08 µM)?
The relative viability was 0.354.

And the relative viability ([11]; first compound 0.8 µM)?
The relative viability was 0.362.

What about the relative viability ([11]; first compound 2.53 µM) of the same molecule?
The relative viability was 0.457.

What about the relative viability ([11]; first compound 8 µM) of the same molecule?
The relative viability was 0.384.

And the relative viability ([12]; first compound 0.08 µM)?
Its relative viability is 0.478.

And the relative viability ([12]; first compound 0.8 µM)?
Its relative viability is 0.485.

And the relative viability ([12]; first compound 2.53 µM)?
Its relative viability is 0.502.

What about the relative viability ([12]; first compound 8 µM) of the same molecule?
Its relative viability is 0.321.

What about the relative viability ([13]; first compound 0.08 µM) of the same molecule?
Its relative viability is 0.603.

And the relative viability ([13]; first compound 0.8 µM)?
The relative viability was 0.729.

What about the relative viability ([13]; first compound 2.53 µM) of the same molecule?
The relative viability was 0.813.

What about the relative viability ([13]; first compound 8 µM) of the same molecule?
The relative viability was 0.754.

What about the relative viability ([14]; first compound 0.08 µM) of the same molecule?
The relative viability was 0.436.

And the relative viability ([14]; first compound 0.8 µM)?
The relative viability was 0.406.

And the relative viability ([14]; first compound 2.53 µM)?
Its relative viability is 0.5.

And the relative viability ([14]; first compound 8 µM)?
The relative viability was 0.443.

What about the relative viability ([15]; first compound 0.08 µM) of the same molecule?
The relative viability was 0.221.

What about the relative viability ([15]; first compound 0.8 µM) of the same molecule?
The relative viability was 0.268.

What about the relative viability ([15]; first compound 2.53 µM) of the same molecule?
Its relative viability is 0.198.

And the relative viability ([15]; first compound 8 µM)?
Its relative viability is 0.237.

And the relative viability ([16]; first compound 0.08 µM)?
The relative viability was 0.618.

And the relative viability ([16]; first compound 0.8 µM)?
Its relative viability is 0.72.

And the relative viability ([16]; first compound 2.53 µM)?
The relative viability was 0.671.

What about the relative viability ([16]; first compound 8 µM) of the same molecule?
The relative viability was 0.592.

What about the relative viability ([17]; first compound 0.08 µM) of the same molecule?
Its relative viability is 0.287.

What about the relative viability ([17]; first compound 0.8 µM) of the same molecule?
The relative viability was 0.348.

What about the relative viability ([17]; first compound 2.53 µM) of the same molecule?
Its relative viability is 0.406.

What about the relative viability ([17]; first compound 8 µM) of the same molecule?
Its relative viability is 0.332.

What about the relative viability ([18]; first compound 0.08 µM) of the same molecule?
The relative viability was 0.523.

What about the relative viability ([18]; first compound 0.8 µM) of the same molecule?
The relative viability was 0.531.

And the relative viability ([18]; first compound 2.53 µM)?
Its relative viability is 0.507.

What about the relative viability ([18]; first compound 8 µM) of the same molecule?
Its relative viability is 0.484.

What about the relative viability ([19]; first compound 0.08 µM) of the same molecule?
Its relative viability is 0.422.

And the relative viability ([19]; first compound 0.8 µM)?
The relative viability was 0.674.

What about the relative viability ([19]; first compound 2.53 µM) of the same molecule?
The relative viability was 0.654.

What about the relative viability ([19]; first compound 8 µM) of the same molecule?
Its relative viability is 0.456.

What about the relative viability ([20]; first compound 0.08 µM) of the same molecule?
The relative viability was 0.538.

What about the relative viability ([20]; first compound 0.8 µM) of the same molecule?
The relative viability was 0.602.

What about the relative viability ([20]; first compound 2.53 µM) of the same molecule?
Its relative viability is 0.531.

What about the relative viability ([20]; first compound 8 µM) of the same molecule?
The relative viability was 0.504.

And the relative viability ([21]; first compound 0.08 µM)?
Its relative viability is 0.455.

And the relative viability ([21]; first compound 0.8 µM)?
Its relative viability is 0.511.

What about the relative viability ([21]; first compound 2.53 µM) of the same molecule?
The relative viability was 0.577.

What about the relative viability ([21]; first compound 8 µM) of the same molecule?
Its relative viability is 0.254.

And the relative viability ([22]; first compound 0.08 µM)?
Its relative viability is 0.514.

And the relative viability ([22]; first compound 0.8 µM)?
Its relative viability is 0.56.

And the relative viability ([22]; first compound 2.53 µM)?
Its relative viability is 0.56.

And the relative viability ([22]; first compound 8 µM)?
Its relative viability is 0.516.

What about the relative viability ([23]; first compound 0.08 µM) of the same molecule?
Its relative viability is 0.502.

And the relative viability ([23]; first compound 0.8 µM)?
Its relative viability is 0.783.

What about the relative viability ([23]; first compound 2.53 µM) of the same molecule?
Its relative viability is 0.617.

And the relative viability ([23]; first compound 8 µM)?
The relative viability was 0.656.

What about the relative viability ([24]; first compound 0.08 µM) of the same molecule?
Its relative viability is 0.945.

And the relative viability ([24]; first compound 0.8 µM)?
The relative viability was 0.958.

What about the relative viability ([24]; first compound 2.53 µM) of the same molecule?
The relative viability was 1.19.

What about the relative viability ([24]; first compound 8 µM) of the same molecule?
The relative viability was 1.06.
